Earlier results as cited in patent US20250231185A1, “Coronavirus T Cell Epitopes, Megapools and Uses Thereof” (La Jolla Institute for Immunology, priority 2021, published 2025).

Tested on: CD8+ T cells
Settings: CD8R (D) megapool epitopes; dominant = recognized by 3 or more donors/different studies; cited from earlier work

Substance | Dominant
1715 (TMADLVYAL) [compound 1715] | Yes (more dominant epitopes are defined by being recognized by 3 or more donors/different studies)
1689 (SPRWYFYYL) [compound 1689] | Yes (more dominant epitopes are defined by being recognized by 3 or more donors/different studies)
1690 (GTGPEAGLPY) [compound 1690] | Yes (more dominant epitopes are defined by being recognized by 3 or more donors/different studies)
1800 (MDLFMRIFTI) [compound 1800] | Yes (more dominant epitopes are defined by being recognized by 3 or more donors/different studies)
1749 (KQFDTYNLW) [compound 1749] | Yes (more dominant epitopes are defined by being recognized by 3 or more donors/different studies)
1818 (LEYHDVRVVL) [compound 1818] | Yes (more dominant epitopes are defined by being recognized by 3 or more donors/different studies)
1692 (NPANNAAIVL) [compound 1692] | Yes (more dominant epitopes are defined by being recognized by 3 or more donors/different studies)
1695 (LLLLDRLNQL) [compound 1695] | Yes (more dominant epitopes are defined by being recognized by 3 or more donors/different studies)
1706 (ILLNKHIDA) [compound 1706] | Yes (more dominant epitopes are defined by being recognized by 3 or more donors/different studies)
1694 (LALLLLDRL) [compound 1694] | Yes (more dominant epitopes are defined by being recognized by 3 or more donors/different studies)
1742 (TYACWHHSI) [compound 1742] | Yes (more dominant epitopes are defined by being recognized by 3 or more donors/different studies)
1684 (FPRGQGVPI) [compound 1684] | Yes (more dominant epitopes are defined by being recognized by 3 or more donors/different studies)
1750 (NLWNTFTRL) [compound 1750] | Yes (more dominant epitopes are defined by being recognized by 3 or more donors/different studies)

Same assay, conditions: CD8RE megapool peptides (non-spike SARS-CoV-2 antigens); dominant epitope Yes/No; cited from earlier work

Substance | Dominant
3050 (IMLIIFWFSL) [compound 3050] | Yes (more dominant epitopes are defined by being recognized by 3 or more donors/different studies)
3001 (SAPPAQYEL) [compound 3001] | Yes (more dominant epitopes are defined by being recognized by 3 or more donors/different studies)
3051 (IQYIDIGNY) [compound 3051] | Yes (more dominant epitopes are defined by being recognized by 3 or more donors/different studies)
3017 (VLAWLYAAV) [compound 3017] | Yes (more dominant epitopes are defined by being recognized by 3 or more donors/different studies)
2919 (FPRGQGVPI) [compound 2919] | Yes (more dominant epitopes are defined by being recognized by 3 or more donors/different studies)
2920 (YYRRATRRIR) [compound 2920] | Yes (more dominant epitopes are defined by being recognized by 3 or more donors/different studies)
3034 (VTDTPKGPK) [compound 3034] | Yes (more dominant epitopes are defined by being recognized by 3 or more donors/different studies)
2977 (TYACWHHSI) [compound 2977] | Yes (more dominant epitopes are defined by being recognized by 3 or more donors/different studies)
2953 (FVDGVPFVV) [compound 2953] | Yes (more dominant epitopes are defined by being recognized by 3 or more donors/different studies)
2999 (TTDPSFLGRY) [compound 2999] | Yes (more dominant epitopes are defined by being recognized by 3 or more donors/different studies)
3052 (KLGSLVVRC) [compound 3052] | Yes (more dominant epitopes are defined by being recognized by 3 or more donors/different studies)

Same assay, conditions: SARS-CoV-2-derived CD8 epitopes; dominant = recognized by 3 or more donors/different studies; cited from earlier work

Substance | Dominant
539 (GMSRIGMEV) [compound 539] | Yes (more dominant epitopes are defined by being recognized by 3 or more donors/different studies)
504 (GTGPEAGLPY) [compound 504] | Yes (more dominant epitopes are defined by being recognized by 3 or more donors/different studies)
523 (KPRQKRTAT) [compound 523] | Yes (more dominant epitopes are defined by being recognized by 3 or more donors/different studies)

Same assay, conditions: SARS-CoV-2 Ag S; T cell type recognizing the epitope; cited from earlier work

Substance | Restriction
1326 (VLTESNKKF) [compound 1326] | CD8
1413 (LITGRLQSL) [compound 1413] | CD8
1440 (VFVSNGTHWF) [compound 1440] | CD8
1299 (DSKVGGNYNY) [compound 1299] | CD8
1443 (HWFVTQRNF) [compound 1443] | CD8
1456 (LQELGKYEQY) [compound 1456] | CD8
1302 (GNYNYLYRLF) [compound 1302] | CD8
1338 (RVYSTGSNV) [compound 1338] | CD8
1368 (GSFCTQLNR) [compound 1368] | CD8

Same assay, conditions: T cell subset (CD4 or CD8) recognizing the SARS-CoV-2-derived epitope; cited from earlier work

Substance | Restriction
588 (FELDERIDKVL) [compound 588] | CD8
633 (MLAHAEETR) [compound 633] | CD8
634 (AHAEETRKL) [compound 634] | CD8
531 (HWPQIAQF) [compound 531] | CD8
515 (AEGSRGGSQA) [compound 515] | CD8
672 (ARAGEAANF) [compound 672] | CD8
577 (YEKLKPVL) [compound 577] | CD8
574 (RLIDAMMFT) [compound 574] | CD8
622 (FLTENLLLYI) [compound 622] | CD8
642 (ISLAGSYKDW) [compound 642] | CD8
616 (NLYDKLVSSFL) [compound 616] | CD8
604 (IEVNSFSGY) [compound 604] | CD8
539 (GMSRIGMEV) [compound 539] | CD8
570 (AIILASFSAST) [compound 570] | CD8
535 (FAPSASAFF) [compound 535] | CD8
689 (EIDPKLDNY) [compound 689] | CD8
504 (GTGPEAGLPY) [compound 504] | CD8
506 (LPYGANKDGI) [compound 506] | CD8
569 (EEIAIILASF) [compound 569] | CD8
523 (KPRQKRTAT) [compound 523] | CD8
666 (MSALNHTKKW) [compound 666] | CD8

Same assay, conditions: T cell type (CD4 or CD8) recognizing the SARS-CoV-2 epitope; cited from earlier work

Substance | Restriction
935 (VENPDILRVY) [compound 935] | CD8
1096 (YVMHANYIF) [compound 1096] | CD8
960 (AISDYDYYR) [compound 960] | CD8
1081 (LLLDDFVEI) [compound 1081] | CD8
1021 (QLYLGGMSYY) [compound 1021] | CD8
1028 (YRGTTTYKL) [compound 1028] | CD8
1004 (VYLPYPDPSRI) [compound 1004] | CD8
1051 (KNLSDRVVFV) [compound 1051] | CD8
1086 (VAMPNLYKM) [compound 1086] | CD8
921 (YLASGGQPI) [compound 921] | CD8
902 (TFTYASALW) [compound 902] | CD8
925 (KVAGFAKFL) [compound 925] | CD8
